The source made the active and inactive calls. No cut-off for these calls is given here.
Columns and labels:
[1] = Inhibition of PKC in golden hamster DDT1-MF2 cells by measuring calcium 2+ uptake at 10 uM preincubated for 45 mins followed by extracellular calcium 2+ addition measured after 5 mins by liquid scintillation counting analysis (reference value: 100 +/- 6 %); set-up: species or system Mesocricetus auratus; scale not given: the % may be the effect or the level left; details: time 50 min
[2] = Inhibition of PKC in golden hamster DDT1-MF2 cells by measuring calcium 2+ uptake at 5 uM preincubated for 45 mins followed by extracellular calcium 2+ and histamine addition measured after 5 mins by liquid scintillation counting analysis (reference value: 100 +/- 6 %); set-up: species or system Mesocricetus auratus; scale not given: the % may be the effect or the level left; details: time 50 min
[3] = Inhibition of PKC in golden hamster DDT1-MF2 cells by measuring basal cytoplasmic calcium concentration at 5 uM incubated for 45 mins in absence of extracellular calcium 2+; set-up: species or system Mesocricetus auratus; details: 0.75 h
[4] = Inhibition of PKC in golden hamster DDT1-MF2 cells by measuring cytoplasmic calcium concentration at 5 uM incubated for 10 mins in presence of LaCl3; set-up: species or system Mesocricetus auratus
[5] = Inhibition of PKC in golden hamster DDT1-MF2 cells by measuring basal cytoplasmic calcium concentration at 5 uM incubated for 45 mins in presence of extracellular calcium 2+; set-up: species or system Mesocricetus auratus; details: 0.75 h
[6] = Inhibition of PKC in golden hamster DDT1-MF2 cells assessed as decrease in thapsigargin-induced calcium release by measuring cytoplasmic calcium concentration at 5 uM incubated for 45 mins followed by thapsigargin and LaCl3 addition measured after 5 mins; set-up: species or system Mesocricetus auratus; details: time 50 min
DDT1-MF2 [7] = test: Inhibition of PKC in golden hamster DDT1-MF2 cells assessed as decrease in histamine-induced calcium release by measuring cytoplasmic calcium concentration incubated for 45 mins followed by histamine and LaCl3 addition; assay type: cell-based; details: Mesocricetus auratus
[8] = Inhibition of PKC in golden hamster DDT1-MF2 cells assessed as decrease in histamine-induced calcium release by measuring cytoplasmic calcium concentration at 5 uM incubated for 45 mins in presence of LaCl3; set-up: species or system Mesocricetus auratus; details: 0.75 h
[9] = Inhibition of PKC in golden hamster DDT1-MF2 cells assessed as inhibition of histamine-induced calcium response by measuring cytoplasmic calcium concentration at 5 uM preincubated for 45 mins in presence of extracellular calcium 2+ followed by histamine stimulation measured after 5 mins; set-up: species or system Mesocricetus auratus; details: time 50 min
[10] = Inhibition of PKC in golden hamster DDT1-MF2 cells assessed as inhibition of histamine-induced calcium response by measuring cytoplasmic calcium concentration at 5 uM preincubated for 45 mins in absence of extracellular calcium 2+ followed by histamine stimulation; set-up: species or system Mesocricetus auratus; details: 0.75 h
[11] = Inhibition of PKC in golden hamster DDT1-MF2 cells by measuring calcium 2+ uptake at 5 uM preincubated for 45 mins followed by extracellular calcium 2+ and thapsigargin addition measured after 5 mins by liquid scintillation counting analysis (reference value: 100 +/- 6 %); set-up: species or system Mesocricetus auratus; scale not given: the % may be the effect or the level left; details: time 50 min
[12] = Inhibition of PKC in golden hamster DDT1-MF2 cells assessed as decrease in thapsigargin-induced calcium release by measuring cytoplasmic calcium concentration at 5 uM incubated for 45 mins followed by thapsigargin, PMA and LaCl3 addition measured after 48 hrs; set-up: species or system Mesocricetus auratus; details: time 2925 min, 48.75 h
[13] = Inhibition of PKC in golden hamster DDT1-MF2 cells by measuring cytoplasmic calcium concentration at 5 uM incubated for 10 mins; set-up: species or system Mesocricetus auratus
[14] = Inhibition of PKC in golden hamster DDT1-MF2 cells assessed as inhibition of histamine-induced calcium response by measuring maximal cytoplasmic calcium concentration at 5 uM preincubated for 45 mins in presence of extracellular calcium 2+ followed by histamine stimulation; set-up: species or system Mesocricetus auratus; details: 0.75 h
[15] = Inhibition of PKC in golden hamster DDT1-MF2 cells assessed as decrease in calcium 2+ efflux at 5 uM incubated for 10 mins by liquid scintillation counting analysis relative to control; details: Mesocricetus auratus, DDT1-MF2, 10 min
DDT1-MF2 [16] = test: Inhibition of PKC in golden hamster DDT1-MF2 cells assessed as decrease in histamine-induced inositol 1,4,5-trisphosphate formation at 5 uM incubated for 45 mins followed by histamine stimulation by liquid scintillation counting analysis; assay type: cell-based; details: Mesocricetus auratus
DDT1-MF2 [17] = test: Inhibition of PKC in golden hamster DDT1-MF2 cells assessed as decrease in thapsigargin-induced calcium release by measuring cytoplasmic calcium concentration at 5 uM incubated for 45 mins followed by thapsigargin and LaCl3 addition; assay type: cell-based; details: Mesocricetus auratus
[18] = Inhibition of PKC in golden hamster DDT1-MF2 cells by measuring calcium 2+ uptake at 5 uM preincubated for 45 mins followed by extracellular calcium 2+ addition measured after 5 mins by liquid scintillation counting analysis (reference value: 100 +/- 6 %); set-up: species or system Mesocricetus auratus; scale not given: the % may be the effect or the level left; details: time 50 min
DDT1-MF2 [19] = test: Inhibition of PKC in golden hamster DDT1-MF2 cells assessed as decrease in histamine-induced inositol 1,4,5-trisphosphate formation at 5 uM incubated for 45 mins in presence of PMA followed by histamine stimulation by liquid scintillation counting analysis; assay type: cell-based; details: Mesocricetus auratus
[20] = Inhibition of PKC in golden hamster DDT1-MF2 cells assessed as decrease in Ins(1,4,5)P3-induced calcium 2+ efflux at 5 uM incubated for 14 mins by liquid scintillation counting analysis relative to control; details: Mesocricetus auratus, DDT1-MF2, 14 min
DDT1-MF2 [21] = test: Inhibition of PKC in golden hamster DDT1-MF2 cells assessed as increase in inositol 1,4,5-trisphosphate formation at 5 uM incubated for 45 mins by liquid scintillation counting analysis; assay type: cell-based; details: Mesocricetus auratus
[22] = Inhibition of PKC in golden hamster DDT1-MF2 cells assessed as decrease in thapsigargin-induced calcium release by measuring basal cytoplasmic calcium concentration at 5 uM incubated for 45 mins followed by thapsigargin and LaCl3 addition measured after 5 mins; set-up: species or system Mesocricetus auratus; details: time 50 min
[23] = Inhibition of PKC in golden hamster DDT1-MF2 cells assessed as inhibition of histamine-induced calcium response by measuring maximal cytoplasmic calcium concentration at 0.5 uM preincubated for 5 mins in presence of extracellular calcium 2+ followed by histamine stimulation measured after 5 mins; set-up: species or system Mesocricetus auratus; details: time 10 min
[24] = Inhibition of PKC in golden hamster DDT1-MF2 cells assessed as decrease in histamine-induced inositol 1,4,5-trisphosphate formation by measuring inositol 1,4,5-trisphosphate level measured per 10^6 cells at 1 uM incubated for 48 hrs followed by histamine addition; set-up: species or system Mesocricetus auratus
[25] = Inhibition of PKC in golden hamster DDT1-MF2 cells by measuring basal cytoplasmic calcium concentration at 0.5 uM incubated for 5 mins in absence of extracellular calcium 2+; set-up: species or system Mesocricetus auratus
[26] = Inhibition of PKC in golden hamster DDT1-MF2 cells assessed as inhibition of histamine-induced calcium response by measuring maximal cytoplasmic calcium concentration at 0.5 uM preincubated for 5 mins in presence of extracellular calcium 2+ followed by histamine stimulation; set-up: species or system Mesocricetus auratus
[27] = Inhibition of PKC in golden hamster DDT1-MF2 cells by measuring inositol 1,4,5-trisphosphate level measured per 10^6 cells at 1 uM incubated for 48 hrs; set-up: species or system Mesocricetus auratus
[28] = Inhibition of PKC in golden hamster DDT1-MF2 cells by measuring basal cytoplasmic calcium concentration at 0.5 uM incubated for 5 mins in presence of extracellular calcium 2+; set-up: species or system Mesocricetus auratus
[29] = Inhibition of PKC in golden hamster DDT1-MF2 cells assessed as inhibition of histamine-induced calcium response by measuring cytoplasmic calcium concentration at 0.5 uM preincubated for 5 mins in absence of extracellular calcium 2+ followed by histamine stimulation; set-up: species or system Mesocricetus auratus
DDT1-MF2 [30] = test: Inhibition of PKC in golden hamster DDT1-MF2 cells assessed as decrease in histamine-induced inositol 1,4,5-trisphosphate formation at 1 uM incubated for 5 mins followed by histamine stimulation by liquid scintillation counting analysis; assay type: cell-based; details: Mesocricetus auratus
[31] = Inhibition of PKC in golden hamster DDT1-MF2 cells by measuring calcium 2+ uptake at 1 uM preincubated for 45 mins followed by extracellular calcium 2+ addition measured after 5 mins by liquid scintillation counting analysis (reference value: 100 +/- 6 %); set-up: species or system Mesocricetus auratus; scale not given: the % may be the effect or the level left; details: time 50 min

SMILES: Cn1cc(C2=C(c3cn(CCCSC(=N)N)c4ccccc34)C(=O)NC2=O)c2ccccc21 [BISINDOLYLMALEIMIDE IX]
- Activity [1]: 135%

SMILES: CN(C)CCCn1cc(C2=C(c3c[nH]c4ccccc34)C(=O)NC2=O)c2ccccc21 [GF-109203]
- Activity [2]: 155%
- Activity [3]: 82 nM
- Activity [4]: 7 nM
- Activity [5]: 102 nM
- Activity [6]: 68 nM
- inhibition (DDT1-MF2 [7]): Dose-Dependent Effect
- Activity [8]: 38 nM
- Activity [9]: 42 nM
- Activity [10]: 40 nM
- Activity [11]: 238%
- Activity [12]: 73 nM
- Activity [13]: 9 nM
- Activity [14]: 63 nM
- inhibition at 5 µM [15]: 93%
- inhibition (DDT1-MF2 [16]): inactive
- inhibition (DDT1-MF2 [17]): Active
- Activity [18]: 167%
- inhibition (DDT1-MF2 [19]): inactive
- inhibition at 5 µM [20]: 58%
- inhibition (DDT1-MF2 [21]): Active
- Activity [22]: 105 nM

SMILES: CCCCCCCCCCCCCC(=O)O[C@@H]1[C@@H](C)[C@@]2(O)[C@@H](C=C(CO)C[C@]3(O)C(=O)C(C)=C[C@@H]23)[C@@H]2C(C)(C)[C@]12OC(C)=O [PHORBOL MYRISTATE ACETATE]
- Activity [23]: 0 nM
- Activity [24]: 11.5 pmol
- Activity [25]: 80 nM
- Activity [26]: 50 nM
- Activity [27]: 11.6 pmol
- Activity [28]: 129 nM
- Activity [29]: 53 nM
- inhibition (DDT1-MF2 [30]): Active

SMILES: C/C=C(/C)C(=O)O[C@H]1C(C)=C2[C@H]([C@@H]1OC(=O)CCCCCCC)[C@@](C)(OC(C)=O)C[C@H](OC(=O)CCC)[C@@]1(O)[C@H]2OC(=O)[C@@]1(C)O [THAPSIGARGIN]
- Activity [31]: 221%

Reference: ChEMBL document CHEMBL5653634, “The effect of the PKC inhibitor GF109203X on the release of Ca2+ from internal stores and Ca2+ entry in DDT1 MF-2 cells” (1996)
